The source made the active and inactive calls.
Experiments:
[1] = molecular target: T1, Bcl-2-like protein 10 (Homo sapiens, UniProt Q9HD36); test: Bcl-B/TR3 peptide binding disruption – biochemical, fluorescence polarization, FITC-TR3 peptide, selectivity assay for Bfl-1 inhibitor project, primary screen (AID 748);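 further: fluorescence polarization from a fluorescein-labelled TR3 peptide binding purified Bcl-B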
T1 sequence (Q9HD36 whole entry): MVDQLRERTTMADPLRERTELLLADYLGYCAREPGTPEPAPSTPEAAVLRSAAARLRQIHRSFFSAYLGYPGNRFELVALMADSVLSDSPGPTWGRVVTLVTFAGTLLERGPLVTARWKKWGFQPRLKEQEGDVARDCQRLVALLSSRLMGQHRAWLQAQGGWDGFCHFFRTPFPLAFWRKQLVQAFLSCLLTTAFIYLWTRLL

[2] = HepG2 cell cytotoxicity, dose response, cytotoxicity control for non-replicating M. tuberculosis project (AID 489018); type: functional; conditions: Mycobacterium tuberculosis
[3] = cells; type: functional
[4] = molecular target: T2, Histone-lysine N-methyltransferase NSD2 (Homo sapiens, UniProt O96028); type: biochemical
T2 sequence (O96028 whole entry): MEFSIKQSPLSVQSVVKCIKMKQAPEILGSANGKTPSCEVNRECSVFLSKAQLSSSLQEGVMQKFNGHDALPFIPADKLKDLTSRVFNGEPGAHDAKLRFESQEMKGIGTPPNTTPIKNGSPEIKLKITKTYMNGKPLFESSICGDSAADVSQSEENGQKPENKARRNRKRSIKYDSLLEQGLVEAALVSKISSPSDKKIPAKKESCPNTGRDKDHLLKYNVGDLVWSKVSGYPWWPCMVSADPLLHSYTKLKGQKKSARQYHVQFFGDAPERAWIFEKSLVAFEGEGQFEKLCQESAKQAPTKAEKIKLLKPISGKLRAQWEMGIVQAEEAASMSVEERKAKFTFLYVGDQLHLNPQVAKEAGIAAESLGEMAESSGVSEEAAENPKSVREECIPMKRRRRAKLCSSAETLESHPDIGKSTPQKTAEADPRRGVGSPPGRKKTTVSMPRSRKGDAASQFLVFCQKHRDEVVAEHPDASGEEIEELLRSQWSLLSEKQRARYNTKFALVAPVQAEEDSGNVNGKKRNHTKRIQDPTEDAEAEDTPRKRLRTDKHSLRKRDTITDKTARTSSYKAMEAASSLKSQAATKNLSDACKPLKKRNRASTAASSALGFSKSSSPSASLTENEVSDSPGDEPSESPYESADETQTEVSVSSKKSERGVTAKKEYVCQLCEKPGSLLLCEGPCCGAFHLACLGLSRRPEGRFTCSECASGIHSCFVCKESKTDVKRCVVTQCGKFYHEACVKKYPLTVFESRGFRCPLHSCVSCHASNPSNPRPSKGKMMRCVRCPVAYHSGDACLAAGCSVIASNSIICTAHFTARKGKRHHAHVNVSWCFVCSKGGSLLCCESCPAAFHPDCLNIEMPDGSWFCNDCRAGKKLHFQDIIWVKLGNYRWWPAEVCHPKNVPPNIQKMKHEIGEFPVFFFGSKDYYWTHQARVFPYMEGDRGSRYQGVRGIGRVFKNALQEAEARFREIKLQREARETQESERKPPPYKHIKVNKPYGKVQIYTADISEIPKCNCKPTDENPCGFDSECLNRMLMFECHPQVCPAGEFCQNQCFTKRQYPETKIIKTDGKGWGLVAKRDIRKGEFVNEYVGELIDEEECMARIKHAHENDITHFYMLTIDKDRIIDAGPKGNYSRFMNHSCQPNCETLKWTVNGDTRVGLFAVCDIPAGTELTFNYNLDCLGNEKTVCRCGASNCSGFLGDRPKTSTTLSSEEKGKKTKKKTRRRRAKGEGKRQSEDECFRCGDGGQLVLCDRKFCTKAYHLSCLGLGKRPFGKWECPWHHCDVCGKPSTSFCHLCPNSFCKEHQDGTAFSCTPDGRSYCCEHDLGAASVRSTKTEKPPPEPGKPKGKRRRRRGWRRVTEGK

[5] = molecular target: Eukaryotic translation initiation factor 4E (Mus musculus, UniProt P63073); test: blockers of eIF4G binding by eIF4E – biochemical, TR-FRET, dose response (AID 855); type: functional;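 further: potency for disrupting eIF4E binding to eIF4GI seen as loss of FRET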
[6] = intracellular Trypanosoma cruzi inhibitors in host cells – cell-based, plate reader, cherry-pick samples, set 3, dose response (AID 651818); type: functional;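 further: compounds incubated with infected cells for about four days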
[7] = growth inhibition of yeast DHODH-expressing 3D7 parasites – SYBR Green, dry powder samples, dose response (AID 1159570); type: functional, cell-based;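 further: parasite growth measured after 72 hours of compound exposure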
[8] = P. falciparum Dd2 growth inhibitors, dose response, SYBR Green, cherry-picked samples (AID 1159567); type: functional, cell-based
[9] = Dd2 malaria parasite growth inhibition potency – SYBR Green, dry powder samples, dose response (AID 1159566); type: functional, cell-based;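 further: potency for growth inhibition with lower SYBR green DNA signal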
[10] = growth inhibition of PfATP4-mutant resistant parasites – NITD609-resistant line, SYBR Green, dry powder, dose response (AID 1159571); type: functional, cell-based;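 further: parasites synchronized at ring stage by sorbitol before testing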
[11] = molecular target: Paired box protein Pax-8 (Homo sapiens, UniProt Q06710); test: PAX8 transcriptional activity inhibition in RMG-I – RMG-I cells, luciferase, cherry-pick, dose response (AID 687027); type: functional, cell-based;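 further: luciferase reporter driven by Pax8 target thyroperoxidase promoter measured by SteadyGlo luminescence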
[12] = OVCAR8 cell viability loss – plate reader, dry powder samples, PAX8 project, dose response (AID 743197); type: functional, cell-based; conditions: OVCAR-8
[13] = A549 cell cytotoxicity, dose response, cytotoxicity control, plate reader, cherry-pick, antagonist series (AID 743412); type: functional, cell-based
[14] = toxicity toward HepG2 liver cells – cell-based, plate reader, cherry-pick, antagonist series, cytotoxicity control, dose response (AID 743416); type: functional
[15] = blockers of bursicon-stimulated LGR2 cAMP reporter – cell-based, HEK293, CRE-luciferase reporter, cherry pick, set 2, dose response (AID 743343); type: functional;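 further: transfected cells were stimulated with diluted bursicon conditioned medium after compound addition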
[16] = blockade of melanocortin 4 receptor signaling – cell-based, plate reader, cherry pick, counter-screen for LGR2 antagonist project, dose response (AID 743444); type: functional;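 further: transfected HEK 293 cells stimulated with alpha-MSH peptide; potency of inhibitors of the alpha-MSH evoked signal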
[17] = viability loss in HEK293 cells – cell-based, plate reader, cherry-picked samples, cytotoxicity control, dose response (AID 743446); type: functional
[18] = molecular target: Prothrombin (Homo sapiens, UniProt P00734); test: Thrombin 1536 HTS Dose Response Confirmation. [Related pubchem assays: 1046 (Thrombin 1536 HTS; hits were confirmed in this assay)]; type: functional
[19] = HGIII-sPLA2 enzyme inhibition potency – biochemical, QFRET, IC50, dose response (AID 743457);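 further: green fluorescence rise as the enzyme cleaves BODIPY PC-A2 in liposomes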
[20] = toxicity to human hepatoma HepG2 cells – cell-based, cherry-picked samples, cytotoxicity control, dose response (AID 1159577); type: functional

Chain of Paired box protein Pax-8 (Q06710 whole entry): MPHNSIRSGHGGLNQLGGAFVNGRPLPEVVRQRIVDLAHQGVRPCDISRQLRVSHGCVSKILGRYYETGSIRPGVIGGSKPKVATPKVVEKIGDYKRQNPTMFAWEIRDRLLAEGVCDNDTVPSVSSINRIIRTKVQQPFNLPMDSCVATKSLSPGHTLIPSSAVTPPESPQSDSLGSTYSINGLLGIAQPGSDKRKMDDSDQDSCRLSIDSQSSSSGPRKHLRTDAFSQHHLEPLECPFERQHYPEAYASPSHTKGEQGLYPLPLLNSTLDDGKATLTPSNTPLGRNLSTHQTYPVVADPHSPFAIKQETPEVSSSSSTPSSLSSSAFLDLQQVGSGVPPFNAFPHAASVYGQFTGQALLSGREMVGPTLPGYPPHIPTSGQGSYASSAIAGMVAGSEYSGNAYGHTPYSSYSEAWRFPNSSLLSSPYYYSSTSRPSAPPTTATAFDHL
Chain of Eukaryotic translation initiation factor 4E (P63073 whole entry): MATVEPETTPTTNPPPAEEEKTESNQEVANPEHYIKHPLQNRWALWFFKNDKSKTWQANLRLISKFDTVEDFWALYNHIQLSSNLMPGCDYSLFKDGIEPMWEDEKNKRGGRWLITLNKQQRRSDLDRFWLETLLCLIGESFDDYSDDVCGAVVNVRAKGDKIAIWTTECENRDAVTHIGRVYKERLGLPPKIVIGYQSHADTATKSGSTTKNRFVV

SMILES: CCOc1ccc(C(=O)Nc2ccc(N3CCN(C)CC3)cc2)cc1Br
- IC50 [1]: 0.558 µM (active)
- CC50 [2]: > 20 µM (active)
- IC50 [3]: 31.4 µM (active)

SMILES: CCN1/C(=C/C(C)=C/c2sc3ccccc3[n+]2CC)Sc2ccccc21
- AC50 [4]: 7.11 µM (active)

SMILES: Cc1cc(O)c(/C=N/OCc2ccc(Cl)cc2Cl)c(=O)o1
- IC50 [5]: 50 µM (inactive)

SMILES: C[C@@H]1CN([C@H](C)CO)C(=O)c2cccc(NC(=O)Nc3cccc4ccccc34)c2O[C@@H]1CN(C)C(=O)Nc1ccc(C(F)(F)F)cc1
- AC50 [6]: 7.71 µM (active)
- AC50 [7]: 1.15 µM (active)
- AC50 [8]: 1.59 µM (active)
- AC50 [9]: 1.37 µM (active)
- AC50 [10]: 1.21 µM (active)

SMILES: C[C@H]1CN([C@@H](C)CO)S(=O)(=O)c2ccc(-c3ccc(C#N)cc3)cc2O[C@@H]1CN(C)Cc1cccc(F)c1
- AC50 [11]: 8.67 µM (active)
- AC50 [12]: > 60 µM (inactive)

SMILES: N#C[C@@H]1[C@H](c2ccc(C#Cc3ccc(F)cc3)cc2)[C@@H](CO)N1C(=O)C1CCCC1
- AC50 [13]: 19.1 µM (active)
- AC50 [14]: 18.5 µM (active)
- AC50 [15]: 15.8 µM (active)
- AC50 [16]: 13.1 µM (active)
- AC50 [17]: 50.9 µM (active)

SMILES: O=C(O)c1ccc(/N=C/c2nc(-c3ccco3)oc2O)cc1
- IC50 [18]: > 50 µM (not active)

SMILES: C/C(=N\NC(=S)Nc1ccc(C)cc1)c1cc2ccccc2o1.CN(C)C=O
- IC50 [19]: 31.8 µM (inactive)

SMILES: COc1ccccc1C#Cc1ccc([C@H]2[C@@H](C#N)N(C(=O)C3CC3)[C@H]2CO)cc1
- AC50 [7]: 1.35 µM (active)
- AC50 [9]: 0.692 µM (active)
- AC50 [10]: 1.69 µM (active)

SMILES: CCCNC(=O)N1[C@H](CO)[C@H](c2ccc(C3=CCCCC3)cc2)[C@H]1CNC(C)C
- AC50 [8]: 5.26 µM (active)
- AC50 [20]: 39.6 µM (active)

SMILES: C[C@@H]1CN([C@@H](C)CO)C(=O)c2cc(C#CCc3ccccc3)cnc2O[C@H]1CN(C)CC1CCCC1
- AC50 [8]: 1.31 µM (active)
- AC50 [20]: 14.2 µM (active)

Source: ChEMBL document CHEMBL1201862, “PubChem BioAssay data set” (2004)
